In patent publication US6358961B1, “Farnesyltransferase inhibiting quinazolinones” (Jannsen-Cilag S.A., priority 1997, dated 2002):

Legend:
[1] = test system: NIH 3T3 cells transformed by the T24 activated human H-ras gene; assay: Ras-Transformed Cell Phenotype Reversion Assay; type: cell-based, mouse; details: NIH3T3; cell counts after 72 hours proliferation; test concentrations 5, 10, 50, 100 and 500 nM
Source text: “Ras-Transformed Cell Phenotype Reversion Assay”
Insertion of activated oncogenes such as the mutant ras gene into mouse NIH 3T3 cells converts the cells to a transformed phenotype, The cells become tumorigenic, display anchorage independent growth in semi-solid medium and lose contact inhibition. Loss of contact inhibition produces cell cultures which no longer form uniform monolayers. Rather, the cells pile up into multicellular nodules and grow to very high saturation densities in plastic tissue culture dishes. Agents such as protein famesyl transferase inhibitors which revert the ras transformed phenotype restore the uniform monolayer growth pattern to cells in culture. This reversion is easily monitored by counting the number of cells in tissue culture plates. Transformed cells will achieve higher cell numbers than cells which have reverted to an untransformed phenotype. Compounds which revert the transformed phenotype should produce antitumor effects in tumors bearing ras gene mutations.
Compounds are screened in tissue culture in NIH 3T3 cells transformed by the T24 activated human H-ras gene. […] Then the cells are detached in 1.0 ml trypsin-EDTA cell dissociation medium and counted on a Coulter particle counter.
Cell numbers expressed as cells per well are measured using a Coulter Particle Counter. […]

melting point | SMILES | IC50 [1]
255.1 °C | O=c1nc(-c2cccc(Cl)c2)c2cc(C(c3ccc(Cl)cc3)n3ccnc3)ccc2[nH]1 (racemic) [Compound 1, (±)-4-(3-chlorophenyl)-6[(4-chlorophenyl)-1H-imidazol-1-ylmethyl]-2(1H)-quinazolinone] | –
61.4 °C | O=c1nc(-c2cccc(Cl)c2)c2cc(C(c3ccc(Cl)cc3)n3ccnc3)ccc2n1Cc1ccncc1 (racemic) [Compound 3, (±)-4-(3-chlorophenyl)-6-[(4-chlorophenyl)-1H-imidazol-1-ylmethyl]-1-(4-pyridinylmethyl)-2(1H)-quinazolinone] | –
177.1 °C | O=C1Nc2ccc(C(c3ccc(Cl)cc3)n3ccnc3)cc2C(c2cccc(Cl)c2)N1 (racemic) [Compound 8, (±)-4-(3-chlorophenyl)-6-[(4-chlorophenyl)-1H-imidazol-1-ylmethyl]-3,4-dihydro-2(1H)-quinazolinone] | –
– | CN1C(=O)NC(c2cccc(Cl)c2)c2cc(C(c3ccc(Cl)cc3)c3cncn3C)ccc21 (racemic) [Compound 14, (±)-4-(3-chlorophenyl)-6-[(4-chlorophenyl)(1-methyl-1H-imidazol-5-yl)methyl]-3,4-dihydro-1-methyl-2(1H)-quinazolinone] | < 500 nM
